Measurements: PMC6237130, “Disarming the virulence arsenal of Pseudomonas aeruginosa by blocking two-component system signaling” (Chemical Science, 2018)
“Also recorded” adds a separate entry of the source.

How the values were obtained:
[1] = target: T1, HK853 (Thermotoga maritima, UniProt Q9WZV7); assay: HK853 aggregation analysis (native-PAGE); settings: for Compound-induced HK853 aggregation: native-PAGE, Fig. S3
Protocol: HK853 Aggregation Analysis
To analyze the propensity for compounds to cause aggregation, each was mixed at six […]
(5% (v/v) DMSO final). After incubating at RT for 30 min, 8.6 µL native-PAGE sample loading buffer was added, and 15 µL was loaded onto a 7.5% polyacrylamide gel. Proteins were resolved by native-PAGE and silver staining. Compound-induced aggregation was detected by the disappearance of the dimeric HK853 band. NH125 (Tocris Bioscience) was used as a positive […]

[2] = tested on: P. aeruginosa PA14; assay: Swarming assay; type: cell-based, Pseudomonas aeruginosa; settings: 200 μM; for Swarming motility: after 5 days
Protocol: (§1) Swarming assays and quantification of rhamnolipids in swarm-plates
(§2) We followed the revised protocol developed by Trembley et al. for P. aeruginosa swarm assays.6 Plates consisted of modified M9 medium [20 mM NH4Cl; 12 mM Na2HPO4; 22 mM KH2PO4; 8.6 mM NaCl; 1 mM MgSO4; 1 mM CaCl2•2H2O; 11 mM dextrose; 0.5% casamino acids (Difco)] solidified with Bacto-agar (Difco). The M9 media without MgSO4 and CaCl2•2H2O was autoclaved, which were added after cooling the media ~60 °C. The pH was adjusted after autoclaving with HCl and NaOH (pH = 7.5). Then, a 1-in-100 dilution of filter-sterile stock containing 1 mg/mL Nile red (Sigma Aldrich) dissolved in 85% ethylene glycol and added (prepared the day of use to limit photoinactivation).7 Twenty mL of this media was poured into […]
(for the control experiments, same amount of DMSO was added). Plates were allowed to dry for 60 min, with the first 20 min under UV light to ensure plates were sterile following pH adjustment. P. aeruginosa PA14 strain was grown overnight (~16 h) in LB media at 37 °C and 200 RPM. Five µl of bacteria were spotted at the center of each plate, which were incubated at 30 °C in the dark and ~20% humidity. The plates were intermittently taken out for fluorescence scanning [scan settings: GE Typhoon Variable Mode Imager 9500, using 532-nm laser with DY-520XL (λex: 520 nm, λem: 664 nm)]. The scans were visualized and integrated density measurements of whole-plate fluorescence was measured using ImageJ software. Images of these plates were also taken with a Nikon D5200 DSLR camera, which were processed in Adobe Photoshop Lightroom 5 (Mac version) for phase-contrast.
Figure S9. Swarming motility of PA14 in the presence of Rilu-inhibitors at 200 µM after 5 days.
(§3) The top images are fluorescence scans for detecting Nile Red and the bottom images were taken

[3] = tested on: P. aeruginosa PA14; assay: Growth of PA14 cultures with inhibitors (OD620, CFU); type: cell-based, Pseudomonas aeruginosa; settings: for Bacteriostatic and bactericidal properties in PA14 cultures: OD620 measurements and CFU studies, even at high concentrations (500 μM); for t = 9 h, OD620 / t = 24 h, OD620: Table S3, PA14 cultures for metabolomics, 200 µM, 37 °C
Protocol: The overnight culture was diluted 1:100 in fresh LB media. 4 mL of this culture was then put
into a 15 mL borosilicate glass tube, to which Rilu-inhibitors in DMSO were added to a final
concentration of 200 µM and 500 µM (for the control experiments, the same amount of DMSO
was added). These cultures were grown for 24 h at 37 ° C and 200 RPM, and their OD620 values
were measured using a spectrophotometer at various time points.
200 µM and 500 µM after 16 h at 37 °C.

[4] = target: T1, HK853; assay: Inhibition of HK853 activity (BODIPY-ATPγS competition, HK autophosphorylation); type: biochemical; settings: for IC50 values for HK853 inhibitory activity: Fig. 1b and text, HK autophosphorylation; for IC50 values (µM) (95% confidence interval), n = 2: Table S1, HK853 inhibition
Protocol: Inhibition of HK853 Activity
Triton X-100 was premixed with reaction buffer to yield 0.1% (v/v) in final
25-µL reactions. In reaction buffer, 1 µM HK853 was preincubated with test compounds (final
1 µL BODIPY -ATPγS was added to bring
competitors and 5% DMSO. Samples were mixed and incubated in the dark at RT for 1 h before
quenching with 8.6 µL 4× SDS-PAGE sample loading buffer and loading 15 µL on a 10%
stacking gel. After SDS-PAGE, in-gel fluorescence detection elucidated HK853 activity, and
coomassie staining of the gels ensured even protein loading. Integrated density values of the
fluorescent gel bands were normalized as “% Activity” with respect to a control that contained
no inhibitor. Data were plotted in GraphPad Prism with relation to the log of molar inhibitor to
(control FP competition and activity assays), data were fit to a four-parameter logistic equation,
where y is the response, Bottom and Top are plateaus in the units of the y-axis, x is the log of the
molar concentration of inhibitor, HillSlope is the slope of the curve, and IC50 is the concentration
As a result, IC50 values were estimated by constraining the bottom of the curve to

[5] = tested on: P. aeruginosa PA14; assay: RT-qPCR of virulence and TCS genes in PA14; type: cell-based, Pseudomonas aeruginosa; settings: PA14, 9 h, 200 and 500 μM
Protocol: RNA isolation, Reverse Transcriptase -qPCR experiments
(§4) P. aeruginosa PA14 strain was grown overnight (~16 h) in LB media at 37 °C and 200 RPM.
The overnight culture was diluted 1:100 in fresh LB media. Four mL of this culture was then taken in a 15 mL borosilicate glass tube, to which Rilu-inhibitors in DMSO were added to a final concentration of 200 µM or 500 µM (for the control experiments, same amount of DMSO was added). These cultures were then grown for 9 h (late exponential phase) at 37 °C and 200 RPM, OD620 ~0.7. Total RNA was extracted from ~2 mL cell pellet using an RNAEasy Mini kit (Qiagen), according to the manufacturer’s instructions, including exogenous DNase treatment with Ambion Turbo-DNAse Kits. RNA integrity was confirmed by native gel electrophoresis and the quantities were measured using a nanophotometer. cDNA was generated using the DNA-free total RNA using (Applied Biosystems High Capacity cDNA Reverse Transcription Kits) random-primed reverse transcriptase reaction following the manufacturer’s protocol. The cDNA was used as template for quantitative PCR (BioRad MyiQ2 dual-color system) using the SYBR Green detection system (BioRad) on white 96-well PCR plates. Melt curves were obtained for every run, and any wells with multiple peaks were excluded from analysis. Signal was standardized to 2 housekeeping genes, recA, rpoD using the ∆∆C method equation:8 Relative […]
expression = 2(CT standard −C T sample), where CT (cycle time) was determined automatically by the Real Time iQ5 PCR software (BioRad). Primers (Integrated DNA Technologies) for RT-qPCR were designed using NCBI Primer-Blast software. Criteria for primer design were a […]
; primer size = 18 –22 bp; product size = 80–130 bp; product Tm
= 60– 90 °C. Samples were assayed in triplicate and statistical analyses was done with one-way ANOVA (Origin 9.1 software).
Table S5. List of primer pairs used in qPCR
Target gene Forward Reverse […]

[6] = tested on: P. aeruginosa PA14; assay: Quantification of rhamnolipids in swarm-plates (Nile red, ImageJ); type: cell-based, Pseudomonas aeruginosa; settings: 200 μM, Nile red fluorescence, quantified with ImageJ
Protocol: as §1, §2
(for the control experiments, same amount of DMSO was added). Plates were allowed to dry for 60 min, with the first 20 min under UV light to ensure plates were sterile following pH adjustment. […] The plates were intermittently taken out for fluorescence scanning [scan settings: GE Typhoon Variable Mode Imager 9500, using 532-nm laser with DY-520XL (λex: 520 nm, λem: 664 nm)]. The scans were visualized and integrated density measurements of whole-plate fluorescence was measured using ImageJ software. […]
as §3

[7] = tested on: P. aeruginosa PA14; assay: Rapid attachment assay; type: cell-based, Pseudomonas aeruginosa; settings: PA14, 60 min adhesion, relative to DMSO control
Protocol: as §4
The overnight cultures were washed and diluted in LB medium to an OD620 value of 1.0. 100 µL of this suspension was used to inoculate each well of a microtiter plate in presence of Rilu-inhibitors in DMSO at 200 µM or 500 µM (for the control experiments, same amount of DMSO was added). Eight wells per plate were used for each sample. Cells were allowed to adhere for 60 min at 37 °C and 200 RPM. After the planktonic cells were removed, staining with crystal violet was carried out, as described in the biofilm assay procedure. Assays were repeated in triplicate.

[8] = tested on: P. aeruginosa PA14; assay: LC-MS/MS analyses of metabolites in PA14 culture supernatant; type: cell-based, Pseudomonas aeruginosa; settings: 200 μM, 9 h, 37 °C, relative to DMSO control
Protocol: LC-MS analyses of metabolites
The overnight culture was diluted 1:100 in fresh LB media. 4 mL of this culture was added into a 15 mL borosilicate glass tube, to which Rilu-inhibitors in DMSO were added to a final concentration of 200 µM (for the control experiments, same amount of DMSO was added).
These cultures were grown for 9 h (late exponential phase) or 24 h (stationary phase) at 37 °C and 200 RPM. The OD620 values were measured using a spectrophotometer. 1 mL of each culture was placed in a 1.7 mL Eppendorf tube, centrifuged at 5,000 g for 5 min and the supernatant was removed from the cell pellets. The supernatants were directly analyzed on an ESI-LC-MS/MS instrument for metabolites and the cell pellets (from 9 h cultures) were further used for RNA extraction in q-PCR experiments.
Injections of 2 µ L were separated on Zorbax Eclipse plus C18 column (2.1 mm x 50
MeOH:5% water with 0.1% formic acid). The metabolites were separated using an isocratic elution of 100% for 0-3 min, then a 3-17 min linear gradient to 100% B, and 17-20 min of 100% B at a constant flow rate of 0.4 ml/min. Samples were measured in positive ion mode and data was collected in triplicate. Data were analyzed using the Agilent MassHunter Quantitative Analysis suite. From the extracted ion chromatograms (EICs) of the respective metabolite signals, the peak areas were normalized to the OD620 growth values of the respective cultures. All of the peak areas of the treated samples were plotted by considering the DMSO-control sample to be 100% abundance.

[9] = tested on: P. aeruginosa PA14; assay: Biofilm assay (microtitre, crystal violet); type: cell-based, Pseudomonas aeruginosa; settings: high concentrations, PA14, 24 h, relative to DMSO control
Protocol: as §4
The overnight culture was diluted 1:100 in fresh LB media. 200 µL of this culture was then used to inoculate each well of a microtiter plate, to which Rilu-inhibitors were added in DMSO to final concentration of 200 µM or 500 µM (for the control experiments, same amount of DMSO was added). Eight wells per plate were used for each sample. These cultures were grown for 24 h at 37 °C without shaking. After growth, the planktonic cultures were carefully removed to a new microtitre plate to measure the OD620 values. The adhered cells were washed carefully three times with sterile PBS buffer, and then the cells were fixed with MeOH for 20 min. After removing the MeOH, the wells were allowed to dry for 10 min, followed by addition of 0.1% crystal violet. After 15 min of incubation, the stain was carefully removed without touching the rest of the plate. The excess stain was washed away 3 times from the wells with distilled water and the plate was allowed to dry for ~1 h. Finally, the adhered stain was redissolved in 30% acetic acid solution (for 1 h) and absorbance was measured at 595 nm. Assays were repeated in […]
Figure S8. (a) Different stages of biofilm formation. (b) Biofilm formation assessment. All values are plotted relative to a DMSO-treated control and normalized to the final cell density (OD620). […]

[10] = tested on: Vero cells; set-up: method as in PMID 25531939; settings: at <180 μM; cited from earlier work

T1 sequence (Q9WZV7 entry or part of it): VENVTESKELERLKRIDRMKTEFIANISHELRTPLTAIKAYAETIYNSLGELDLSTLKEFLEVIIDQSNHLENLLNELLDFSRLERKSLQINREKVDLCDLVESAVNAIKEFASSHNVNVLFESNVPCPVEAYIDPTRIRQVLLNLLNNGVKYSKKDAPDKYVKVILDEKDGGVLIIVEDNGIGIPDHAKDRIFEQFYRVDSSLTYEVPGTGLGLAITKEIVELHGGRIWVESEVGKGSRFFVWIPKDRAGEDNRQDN

Structure (SMILES) | Compound-induced HK853 aggregation [1] | Swarming motility [2] | Bacteriostatic and bactericidal properties in PA14 cultures [3] | t = 9 h, OD620 [3] | t = 24 h, OD620 [3] | Effect on expression of virulence-associated genes (pqsR, fleQ and pilA) [5] | further results
Nc1nc2ccc(OC(F)(F)F)cc2s1 [Rilu-1, riluzole, reference compound] | non-aggregators | moderate difference in swarming | None of these compounds substantially slowed growth or killed the organism | – | – | – | –
Nc1nc2c(Cl)cc(Cl)cc2s1 [Rilu-10] | – | – | – | – | – | – | IC50 values for HK853 inhibitory activity [4]: No inhibition; also recorded: inactive; IC50 values (µM) (95% confidence interval), n = 2 [4]: No Inhibition
Nc1nc2cc(Br)c(Br)cc2s1 [Rilu-11] | – | – | – | – | – | – | IC50 values for HK853 inhibitory activity [4]: No inhibition; also recorded: inactive; IC50 values (µM) (95% confidence interval), n = 2 [4]: No Inhibition
Nc1nc2ccc([N+](=O)[O-])cc2s1 [Rilu-4] | non-aggregators | moderate difference in swarming | None of these compounds substantially slowed growth or killed the organism | 0.842 | 1.65 | substantially downregulated | –
Nc1nc2cc3sc(N)nc3cc2s1 [Rilu-12] | non-aggregators | major impairment in motility | None of these compounds substantially slowed growth or killed the organism | 0.883 | 1.65 | substantially downregulated | Reduction of RL production on swarm agar plates [6]: 70%; Swarming motility, tendril formation ([2]; after 40 h): most prominently; Reduction in surface attachment [7]: 70%; Amount of PCA produced [8]: ~8%
Nc1nc2ccc(Oc3ccc4nc(N)sc4c3)cc2s1 [Rilu-2] | non-aggregators | – | None of these compounds substantially slowed growth or killed the organism | 0.851 | 1.60 | – | Reduction of biofilm mass [9]: 25%; Cytotoxicity to Vero cells [10]: not cytotoxic; Reduction of PCN [8]: ~85%; Reduction of PYO [8]: 70%
Cc1nc2ccc(N)cc2s1 [Rilu-7] | – | – | – | – | – | does not significantly affect | –
CCCCCCCCCCCCCCCCn1cc[n+](Cc2ccccc2)c1C.[I-] [NH-125, reference compound] | – | – | – | – | – | – | Concentration causing disappearance of the protein dimer band (protein aggregation) ([1]; native-PAGE of HK853, positive aggregation control): ≥ 10 µM
